Laboratory results as given in ChEMBL document CHEMBL1201862, “PubChem BioAssay data set” (2004).
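Five compound concentrations were applied to cells in 96-well plates for 48 hours; endpoints were derived by simple linear interpolation of the resulting dose-response curve. GI50 is the concentration that inhibits growth by half.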 Active and inactive are the calls of the source. No stated cut-off is given here; in the data, active = GI50 up to about 1.1 µM and inactive = higher.

What was measured:
Assay in all cases: growth of human tumour cells (NCI), 48 h
UO-31 = tested on: UO-31
UACC-257 = tested on: UACC-257
TK-10 = tested on: TK-10
OVCAR-3 = tested on: OVCAR-3
COLO 205 = tested on: COLO 205
SK-OV-3 = tested on: SK-OV-3
PC-3 = tested on: PC-3
SNB-19 = tested on: SNB-19
MDA-MB-231 = tested on: MDA-MB-231
SR = tested on: SR
SF-539 = tested on: SF-539
HCC 2998 = tested on: HCC 2998
DU-145 = tested on: DU-145
BT-549 = tested on: BT-549
MDA-MB-435 = tested on: MDA-MB-435
NCI-H460 = tested on: NCI-H460
MOLT-4 = tested on: MOLT-4
CAKI-1 = tested on: CAKI-1
HOP-62 = tested on: HOP-62
KM12 = tested on: KM12

SMILES	GI50 (UO-31)	GI50 (UACC-257)	GI50 (TK-10)	GI50 (OVCAR-3)	GI50 (COLO 205)	GI50 (SK-OV-3)	GI50 (PC-3)	GI50 (SNB-19)	GI50 (MDA-MB-231)	GI50 (SR)	GI50 (SF-539)	GI50 (HCC 2998)	GI50 (DU-145)	GI50 (BT-549)	GI50 (MDA-MB-435)	GI50 (NCI-H460)	GI50 (MOLT-4)	GI50 (CAKI-1)	GI50 (HOP-62)	GI50 (KM12)
C#CCSc1cnc2ccccc2c1Sc1c[nH]c2ccccc2c1=O	2.14 µM (inactive)	17.6 µM (inactive)	40.2 µM (inactive)	23.4 µM (inactive)	24 µM (inactive)	30.3 µM (inactive)	17.6 µM (inactive)	16.1 µM (inactive)	31.9 µM (inactive)	3.86 µM (inactive)	28.6 µM (inactive)	17.9 µM (inactive)	51.3 µM (inactive)	28.7 µM (inactive)	23.6 µM (inactive)	11.7 µM (inactive)	4.53 µM (inactive)	23.7 µM (inactive)	26.5 µM (inactive)	21.1 µM (inactive)
C=C1C(=O)OC2/C=C(\CO)C3OC3C3OC3(C)CC(OC(=O)/C(=C/C)COC(C)=O)C12 (stereo not given)	10.6 µM (inactive)	3.84 µM (inactive)	2.94 µM (inactive)	3.52 µM (inactive)	1.63 µM (inactive)	18.2 µM (inactive)	14 µM (inactive)	15.1 µM (inactive)	6.04 µM (inactive)	2.09 µM (inactive)	2.91 µM (inactive)	16.5 µM (inactive)	17.1 µM (inactive)	1.77 µM (inactive)	2.59 µM (inactive)	12.2 µM (inactive)	7.89 µM (inactive)	1.95 µM (inactive)	21.6 µM (inactive)	7.31 µM (inactive)
CC1OC(OC2C(O[C@@H]3C[C@@H]4CC[C@@H]5[C@H](CC[C@]6(C)C7C(C[C@@H]56)O[C@]5(CC[C@@H](C)CO5)[C@H]7C)[C@@]4(C)C[C@H]3O)OC(CO)C(O)C2O)C(O)C(O)C1O (stereo not given in full)	1.78 µM (inactive)	1.86 µM (inactive)	1.76 µM (inactive)	1.8 µM (inactive)	1.85 µM (inactive)	1.89 µM (inactive)	1.76 µM (inactive)	2.41 µM (inactive)	1.78 µM (inactive)	2.16 µM (inactive)	1.64 µM (inactive)	1.82 µM (inactive)	1.84 µM (inactive)	1.93 µM (inactive)	1.8 µM (inactive)	1.92 µM (inactive)	1.86 µM (inactive)	2.06 µM (inactive)	2 µM (inactive)	2.32 µM (inactive)
Cc1oc2c(c1C)S(=O)(=O)C(C#N)=C(c1ccccc1)N2	> 100 µM (inactive)	> 100 µM (inactive)	> 100 µM (inactive)	> 100 µM (inactive)	> 100 µM (inactive)	> 100 µM (inactive)	> 100 µM (inactive)	> 100 µM (inactive)	> 100 µM (inactive)	> 100 µM (inactive)	> 100 µM (inactive)	> 100 µM (inactive)	> 100 µM (inactive)	> 100 µM (inactive)	> 100 µM (inactive)	> 100 µM (inactive)	> 100 µM (inactive)	> 100 µM (inactive)	> 100 µM (inactive)	> 100 µM (inactive)
O=C(N/N=C/c1ccc2c(c1)OCO2)Nc1ccccc1Cl	4.25 µM (inactive)	2.23 µM (inactive)	2.15 µM (inactive)	0.391 µM (active)	0.957 µM (active)	2.77 µM (inactive)	2.21 µM (inactive)	3.7 µM (inactive)	4.7 µM (inactive)	0.22 µM (active)	0.918 µM (active)	0.361 µM (active)	2.02 µM (inactive)	1.85 µM (inactive)	0.171 µM (active)	0.65 µM (active)	0.462 µM (active)	4.18 µM (inactive)	2.61 µM (inactive)	0.598 µM (active)
O=C(/C=C1\Sc2ccccc2N=C1CC(=O)c1ccccc1)c1ccccc1	8.49 µM (inactive)	97.3 µM (inactive)	5.73 µM (inactive)	10.7 µM (inactive)	10.3 µM (inactive)	9.82 µM (inactive)	8.22 µM (inactive)	69.7 µM (inactive)	6 µM (inactive)	1.4 µM (inactive)	13.2 µM (inactive)	10.1 µM (inactive)	6.65 µM (inactive)	8.13 µM (inactive)	6.52 µM (inactive)	3.89 µM (inactive)	1.79 µM (inactive)	4.12 µM (inactive)	2.32 µM (inactive)	4.76 µM (inactive)
CN(Nc1cc(=O)[nH]c(=O)[nH]1)c1ccccc1	> 100 µM (inactive)	> 100 µM (inactive)	> 100 µM (inactive)	> 100 µM (inactive)	> 100 µM (inactive)	> 100 µM (inactive)	> 100 µM (inactive)	> 100 µM (inactive)	> 100 µM (inactive)	> 100 µM (inactive)	> 100 µM (inactive)	> 100 µM (inactive)	> 100 µM (inactive)	> 100 µM (inactive)	> 100 µM (inactive)	> 100 µM (inactive)	> 100 µM (inactive)	> 100 µM (inactive)	> 100 µM (inactive)	> 100 µM (inactive)
